Columns and labels:
[1] = Stability in plasma; format: in vitro ADME; settings: for Stability in plasma compared with p-GSH: summary in words of Table 1
Procedure: (§1) Compounds 4 and 9 were tested in for stability in the gastrointestinal tract and plasma.

[2] = Stability in GI tract (gastric and intestinal phase); format: in vitro ADME; settings: for Stability in the GI tract compared with p-GSH: summary in words of Table 1
Procedure: as §1

[3] = Conversion of prodrugs into p-GSH in liver homogenate; format: in vitro ADME; settings: liver homogenate with proteinase inhibitors; FIGS. 1 and 2
Procedure: The conversion of the p-GSH prodrugs, compounds 4 & 9 into p-GSH were studied in liver homogenate. Liver and brain homogenate were selected because they not only are considered as metabolic organs for p-GSH but also the target organs of p-GSH. The homogenate was prepared from fresh liver tissue and proteinase inhibitors were added in order to prevent degradation of metabolic enzymes.

[4] = molecular target: T1, glyoxalase-I (Homo sapiens, UniProt Q04760); settings: previous studies (More, Vince 2012); cited from earlier work
T1 sequence (Q04760 2-184 limits assumed): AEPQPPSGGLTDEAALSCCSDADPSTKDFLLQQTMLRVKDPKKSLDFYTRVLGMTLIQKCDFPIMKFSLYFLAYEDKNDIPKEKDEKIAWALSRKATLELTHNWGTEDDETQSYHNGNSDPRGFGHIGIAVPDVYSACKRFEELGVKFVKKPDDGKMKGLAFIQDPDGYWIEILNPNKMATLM

[5] = system: amyloid-β induced neurotoxicity; settings: certain earlier data; cited from earlier work
[6] = system: transgenic Alzheimer's mice; settings: certain earlier data; cited from earlier work
[7] = system: acetaminophen (ACP) toxicity; settings: cited from earlier work

Row | Stability in plasma [1] | Stability in plasma compared with p-GSH [1] | Stability in GI tract, Gastric Phase [2] | Stability in GI tract, Intestinal Phase [2] | Stability in the GI tract compared with p-GSH [2] | SMILES | Conversion into parent compound p-GSH [3] | Substrate property for glyoxalase-I [4] | Effect on amyloid-β induced neurotoxicity [5] | Effect on cognitive decline [6] | Rescue agent against acetaminophen (ACP) toxicity [7]
1 | 5.8 h | more stable in plasma | >24 h | 5.1 h | more stable than p-GSH in the GI tract | CC(=O)SC[C@H](NC(=O)NC[C@H](N)C(=O)O)C(=O)NCC(=O)O [Compound 4] | can be converted into parent compound p-GSH |  |  |  | 
2 | 80 h | more stable in plasma | >24 h | 7.7 h | more stable than p-GSH in the GI tract | CCOC(=O)SC[C@H](NC(=O)NC[C@H](N)C(=O)O)C(=O)NCC(=O)O [Compound 9] | can be converted into parent compound p-GSH |  |  |  | 
3 | 0.0433 h |  | >24 h | 1.3 h < 4 h |  | N[C@@H](CNC(=O)N[C@@H](CS)C(=O)NCC(=O)O)C(=O)O [p-GSH] |  | stable substrate | reduced the amyloid-β induced neurotoxicity | prevented cognitive decline | useful as rescue agent
